Source: ChEMBL document CHEMBL1201862, “PubChem BioAssay data set” (2004)
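How tested: cells in 96-well plates exposed to compound for 48 hours at five concentrations. GI50 marks 50% less growth.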 Activity calls are given as the source filed them. No stated cut-off is given here; in the data, active = GI50 up to about 1.1 µM and inactive = higher.

Legend:
Experiment in all cases: NCI-60 cell line screen, 48 h
A498 = system: A498
ACHN = system: ACHN
CAKI-1 = system: CAKI-1
Hs-578T = system: Hs-578T
LOX IMVI = system: LOX IMVI
M14 = system: M14
MDA-N = system: MDA-N
MOLT-4 = system: MOLT-4
Malme-3M = system: Malme-3M
NCI-H226 = system: NCI-H226
OVCAR-4 = system: OVCAR-4
OVCAR-8 = system: OVCAR-8
SF-539 = system: SF-539
SK-MEL-28 = system: SK-MEL-28
SN12C = system: SN12C
SNB-19 = system: SNB-19
SNB-75 = system: SNB-75
SR = system: SR

Measured: GI50

Cc1cc(N2CCCCC2)nc2ccc(Cc3ccc4nc(N5CCCCC5)cc(C)c4c3)cc12
inactive: A498 > 100 µM | ACHN > 100 µM | CAKI-1 > 100 µM | Hs-578T > 100 µM | LOX IMVI > 100 µM | M14 > 100 µM | MDA-N > 100 µM | MOLT-4 > 100 µM | Malme-3M > 100 µM | NCI-H226 > 100 µM | OVCAR-4 > 100 µM | OVCAR-8 > 100 µM | SF-539 > 100 µM | SK-MEL-28 > 100 µM | SN12C > 100 µM | SNB-19 > 100 µM | SNB-75 > 100 µM | SR 24.2 µM

Cc1ccc(N)c(S)c1
inactive: A498 16.7 µM | ACHN 18.5 µM | CAKI-1 28.8 µM | Hs-578T 38 µM | LOX IMVI 16.4 µM | M14 16.9 µM | MDA-N 14.9 µM | MOLT-4 22 µM | Malme-3M 30.5 µM | NCI-H226 22 µM | OVCAR-4 20 µM | OVCAR-8 17.1 µM | SF-539 17.5 µM | SK-MEL-28 27.5 µM | SN12C 1.7 µM | SNB-19 21.1 µM | SNB-75 21.7 µM | SR 18 µM

COC(=O)c1ccccc1C1CN=NC12Cc1ccc3ccccc3c1C2=O (configuration not stated)
inactive: A498 > 100 µM | ACHN > 100 µM | CAKI-1 > 100 µM | Hs-578T 94.4 µM | LOX IMVI > 100 µM | M14 > 100 µM | MDA-N > 100 µM | MOLT-4 57.3 µM | Malme-3M 30.8 µM | NCI-H226 > 100 µM | OVCAR-4 > 100 µM | OVCAR-8 > 100 µM | SF-539 73.8 µM | SK-MEL-28 > 100 µM | SN12C > 100 µM | SNB-19 > 100 µM | SNB-75 > 100 µM | SR 36.5 µM

N[C@@H](Cc1ccc2oc3cc(=O)c4ccccc4c-3nc2c1)C(=O)O
inactive: A498 > 100 µM | ACHN 48.2 µM | CAKI-1 > 100 µM | Hs-578T 45.8 µM | LOX IMVI 37.8 µM | M14 15.3 µM | MDA-N 16.6 µM | MOLT-4 40.7 µM | Malme-3M 3.37 µM | NCI-H226 34 µM | OVCAR-4 > 100 µM | OVCAR-8 49 µM | SF-539 74 µM | SK-MEL-28 62.4 µM | SN12C 55.5 µM | SNB-19 26.4 µM | SNB-75 15 µM | SR 24.7 µM

O=C(NCCCCNCCCNC(=O)c1cc(-c2ccccc2)nc2ccccc12)c1cc(-c2ccccc2)nc2ccccc12
inactive: A498 2.08 µM | ACHN 1.9 µM | CAKI-1 1.84 µM | Hs-578T 1.96 µM | LOX IMVI 1.54 µM | M14 2.1 µM | MDA-N 1.83 µM | MOLT-4 1.42 µM | Malme-3M 1.78 µM | NCI-H226 1.78 µM | OVCAR-8 1.69 µM | SF-539 2.13 µM | SK-MEL-28 1.83 µM | SN12C 1.97 µM | SNB-19 1.76 µM | SNB-75 1.84 µM | SR 2.35 µM

Cc1cc(N2CCN(C)CC2)n2nc(-c3ccc(Cl)cc3)nc2n1
inactive: A498 43.3 µM | ACHN 50.6 µM | CAKI-1 > 100 µM | Hs-578T > 100 µM | LOX IMVI 61.1 µM | M14 > 100 µM | MDA-N 92.9 µM | MOLT-4 34.8 µM | Malme-3M > 100 µM | NCI-H226 > 100 µM | OVCAR-4 > 100 µM | OVCAR-8 > 100 µM | SF-539 75 µM | SK-MEL-28 91.8 µM | SN12C 54.6 µM | SNB-19 > 100 µM | SNB-75 66.7 µM | SR 17.7 µM

COC(=O)C(Cc1ccccc1I)C1=CCC2(CC1)OCCO2 (configuration not stated)
inactive: A498 74.1 µM | ACHN 36.6 µM | CAKI-1 70 µM | Hs-578T 26.6 µM | LOX IMVI 23.3 µM | M14 22.3 µM | MDA-N 28.6 µM | MOLT-4 21.4 µM | Malme-3M 22.9 µM | NCI-H226 79.3 µM | OVCAR-4 37.2 µM | OVCAR-8 35.2 µM | SF-539 63.8 µM | SK-MEL-28 48.9 µM | SNB-19 25.4 µM | SNB-75 21.2 µM | SR 18 µM

C1=C\CCCCN2C[C@H]3CCCC/C=C\CCCCN4CC[C@@H]([C@H](CCCCCC/1)C4)[C@H](C3)C2
inactive: A498 6.65 µM | ACHN 2.07 µM | CAKI-1 2.79 µM | Hs-578T 2.05 µM | LOX IMVI 1.74 µM | MDA-N 1.75 µM | MOLT-4 1.49 µM | Malme-3M 1.85 µM | NCI-H226 17.6 µM | OVCAR-4 1.62 µM | OVCAR-8 2.84 µM | SF-539 1.87 µM | SK-MEL-28 1.93 µM | SN12C 10 µM | SNB-19 2.06 µM | SNB-75 2.16 µM | SR 2.4 µM

O=S1(=O)CCN(Cc2ccccn2)CC1
inactive: A498 > 100 µM | ACHN > 100 µM | CAKI-1 > 100 µM | Hs-578T > 100 µM | LOX IMVI > 100 µM | M14 > 100 µM | MDA-N > 100 µM | Malme-3M > 100 µM | NCI-H226 > 100 µM | OVCAR-4 > 100 µM | OVCAR-8 > 100 µM | SF-539 > 100 µM | SK-MEL-28 > 100 µM | SN12C > 100 µM | SNB-19 > 100 µM | SNB-75 > 100 µM | SR > 100 µM

C1CCCCC2(CCCCCCCCC3(CCC1)OCCO3)OCCO2
inactive: A498 > 100 µM | ACHN > 100 µM | CAKI-1 > 100 µM | Hs-578T > 100 µM | LOX IMVI > 100 µM | M14 > 100 µM | MDA-N > 100 µM | Malme-3M > 100 µM | NCI-H226 > 100 µM | OVCAR-4 > 100 µM | OVCAR-8 > 100 µM | SF-539 > 100 µM | SK-MEL-28 > 100 µM | SN12C > 100 µM | SNB-19 > 100 µM | SNB-75 > 100 µM | SR > 100 µM

CCOC(=O)C1CCC(=O)N1C(=O)c1cccc(Cl)c1 (configuration not stated)
inactive: A498 > 100 µM | ACHN > 100 µM | CAKI-1 > 100 µM | Hs-578T > 100 µM | LOX IMVI > 100 µM | M14 > 100 µM | MDA-N > 100 µM | MOLT-4 > 100 µM | Malme-3M > 100 µM | NCI-H226 > 100 µM | OVCAR-8 > 100 µM | SF-539 > 100 µM | SK-MEL-28 > 100 µM | SN12C > 100 µM | SNB-19 > 100 µM | SNB-75 > 100 µM | SR > 100 µM
